# Results reported in patent US20080021026A1, “BENZOTHIOPHENE INHIBITORS OF RHO KINASE” (priority 2006, published 2008).
# Like-named read-outs stand apart in the source and are kept apart here.
# Target: T1, recombinant N-terminal GST-tagged human Rho kinase 2 (ROCK2, amino acids 1-552) (Homo sapiens, UniProt O75116)
# T1 construct: ROCK2, amino acids 1-552; purchased Invitrogen Inc. PV3759
# Experiment: In vitro Rho kinase assay (luciferase-based ATP consumption), ROCK2
# Format: biochemical
# Protocol: In Vitro Rho Kinase Assay
# Rho kinase biochemical assays described below depend on firefly luciferase-based, indirect measurement of total ATP consumption by the kinase following incubation with substrate and ATP. 25 μl of Rho kinase assay buffer (20 mM Tris-HCL [pH 7.5], 1 mM MgCl2, 0.4 mM CaCl2, 0.15 mM EGTA, 0.1 mg/ml bovine serum albumin) containing 0.82 μg/ml of recombinant N-terminal GST-tagged human Rho kinase 1 (ROCK1, amino acids 1-535, Invitrogen Inc., cat. #PV-3691) or recombinant N-terminal GST-tagged human Rho kinase 2 (ROCK2, amino acids 1-552, Invitrogen Inc., cat #PV3759), 100 μg/ml S6 peptide substrate (related to amino acids 218-249 of the human 40S ribosomal protein S6, and suitable for ROCK1 or ROCK2, e.g. Upstate/Millipore Inc., cat #12-420), and 3 µM ATP are dispensed to wells of a 384 multi-well opaque plate. The plate is centrifuged for 30 seconds at approximately 200×g. 240 nl of test compound in DMSO is dispensed to each well by passive pin transfer. The lag phase of this in vitro kinase reaction permits addition of compounds soon after the reaction initiates. The reaction is allowed to incubate at 30° C. for 2 hours. The assay plates are sealed and maintained in a humidified environment. After 2 hours, 25 μl of easylite protein kinase assay reagent (Perkin-Elmer, Inc.) is dispensed. After an additional 10 minute incubation at room temperature (about 22° C.), luminescence activity is measured on a Molecular Devices Analyst multi-mode plate reader or other suitable plate reader. Kinase inhibition results in less ATP consumption, and therefore increased luminescence signal. Negative control activity is measured with DMSO lacking any test compound. The positive control is 2-methyl-1-(4-methylisoquinolin-5-ylsulfonyl)perhydro-1,4-diazepine hydrochloride (aka H-1152P, HCl salt). Efficacy is measured as a percentage of positive control activity. […] In some cases, kinase reactions and compound testing are performed in 1536 multi-well plates under similar conditions, with assay volumes appropriately scaled. The designation NT means the cited example was not tested.
# [1] = recombinant GST-tagged human ROCK2, luciferase-based ATP consumption, read-out: ROCK2 IC50
# [2] = ROCK2 IC50, recombinant GST-tagged human ROCK2, luciferase-based ATP consumption
# T1 sequence (O75116 1-552): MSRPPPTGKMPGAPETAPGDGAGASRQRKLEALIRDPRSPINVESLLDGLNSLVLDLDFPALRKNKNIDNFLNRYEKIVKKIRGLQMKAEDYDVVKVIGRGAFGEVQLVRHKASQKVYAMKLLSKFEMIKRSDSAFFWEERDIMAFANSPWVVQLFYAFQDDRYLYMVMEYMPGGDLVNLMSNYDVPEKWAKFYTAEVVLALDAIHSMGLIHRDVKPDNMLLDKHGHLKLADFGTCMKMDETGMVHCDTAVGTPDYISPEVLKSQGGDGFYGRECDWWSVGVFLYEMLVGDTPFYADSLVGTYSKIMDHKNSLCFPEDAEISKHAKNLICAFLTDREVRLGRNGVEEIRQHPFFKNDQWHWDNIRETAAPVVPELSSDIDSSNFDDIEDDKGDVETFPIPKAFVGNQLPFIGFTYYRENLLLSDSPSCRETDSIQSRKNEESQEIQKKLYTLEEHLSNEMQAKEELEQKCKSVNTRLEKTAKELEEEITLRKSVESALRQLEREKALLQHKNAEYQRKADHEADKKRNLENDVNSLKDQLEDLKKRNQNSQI
IC50 [1] [µM],SMILES,IC50 [2] [µM]
< 5,"Cc1c(-c2ccnc(N)n2)sc2ccc(C(=O)NCc3ccc4c(c3)OCO4)cc12 [Example 420, Cc1c(sc2ccc(cc12)C(═O)NCc3ccc4OCOc4c3)-c5ccnc(N)n5]",
< 5,"COc1cccc(CCNC(=O)c2ccc3sc(-c4ccnc(N)n4)c(C)c3c2)c1 [Example 421, COc1cccc(CCNC(═O)c2ccc3sc(c(C)c3c2)-c4ccnc(N)n4)c1]",
< 5,"Cc1c(-c2ccnc(N)n2)sc2ccc(C(=O)N[C@H](CO)Cc3ccccc3)cc12 [Example 422, Cc1c(sc2ccc(cc12)C(═O)N[C@H](CO)Cc3ccccc3)-c4ccnc(N)n4]",
< 5,"COc1ccccc1CCNC(=O)c1ccc2sc(-c3ccnc(N)n3)c(C)c2c1 [Example 424, COc1ccccc1CCNC(═O)c2ccc3sc(c(C)c3c2)-c4ccnc(N)n4]",
< 5,"CCOc1ccccc1CNC(=O)c1ccc2sc(-c3ccnc(N)n3)c(C)c2c1 [Example 425, CCOc1ccccc1CNC(═O)c2ccc3sc(c(C)c3c2)-c4ccnc(N)n4]",
< 5,"COc1ccc(NC(=O)c2ccc3sc(-c4ccnc(N)n4)c(C)c3c2)cc1OC [Example 426, COc1ccc(NC(═O)c2ccc3sc(c(C)c3c2)-c4ccnc(N)n4)cc1OC]",
,"Cc1c(-c2ccnc(N)n2)sc2ccc(C(=O)NCCc3ccccc3Cl)cc12 [Example 427, Cc1c(sc2ccc(cc12)C(═O)NCCc3ccccc3Cl)-c4ccnc(N)n4]",< 5
< 5,"Cc1c(-c2ccnc(N)n2)sc2ccc(C(=O)NCCc3ccc(Cl)cc3)cc12 [Example 428, Cc1c(sc2ccc(cc12)C(═O)NCCc3ccc(Cl)cc3)-c4ccnc(N)n4]",
< 5,"Cc1c(-c2ccnc(N)n2)sc2ccc(C(=O)NCCc3cccc(Cl)c3)cc12 [Example 429, Cc1c(sc2ccc(cc12)C(═O)NCCc3cccc(Cl)c3)-c4ccnc(N)n4]",
< 5,"Cc1c(-c2ccnc(N)n2)sc2ccc(C(=O)NC3CC(C)(C)NC(C)(C)C3)cc12 [Example 430, Cc1c(sc2ccc(cc12)C(═O)NC3CC(C)(C)NC(C)(C)C3)-c4ccnc(N)n4]",
> 5,"CCN(CC)CCCC(C)NC(=O)c1ccc2sc(-c3ccnc(N)n3)c(C)c2c1 (stereo not drawn) [Example 431, CCN(CC)CCCC(C)NC(═O)c1ccc2sc(c(C)c2c1)-c3ccnc(N)n3]",
< 5,"Cc1c(-c2ccnc(N)n2)sc2ccc(C(=O)NCc3ccc(F)c(Cl)c3)cc12 [Example 432, Cc1c(sc2ccc(cc12)C(═O)NCc3ccc(F)c(Cl)c3)-c4ccnc(N)n4]",
< 5,"Cc1c(-c2ccnc(N)n2)sc2ccc(C(=O)N(CCC#N)Cc3ccccc3)cc12 [Example 433, Cc1c(sc2ccc(cc12)C(═O)N(CCC#N)Cc3ccccc3)-c4ccnc(N)n4]",
< 5,"Cc1c(-c2ccnc(N)n2)sc2ccc(C(=O)NCCNC(=O)OC(C)(C)C)cc12 [Example 434, Cc1c(sc2ccc(cc12)C(═O)NCCNC(═O)OC(C)(C)C)-c3ccnc(N)n3]",
< 5,"Cc1c(-c2ccnc(N)n2)sc2ccc(C(=O)NCCc3c[nH]c4ccccc34)cc12 [Example 435, Cc1c(sc2ccc(cc12)C(═O)NCCc3c[nH]c4ccccc34)-c5ccnc(N)n5]",
> 5,"Cc1c(-c2ccnc(N)n2)sc2ccc(C(=O)NCc3ccc(C(C)(C)C)cc3)cc12 [Example 436, Cc1c(sc2ccc(cc12)C(═O)NCc3ccc(cc3)C(C)(C)C)-c4ccnc(N)n4]",
< 5,"Cc1c(-c2ccnc(N)n2)sc2ccc(C(=O)NCCCN(C)c3ccccc3)cc12 [Example 437, CN(CCCNC(═O)c1ccc2sc(c(C)c2c1)-c3ccnc(N)n3)c4ccccc4]",
< 5,"Cc1c(-c2ccnc(N)n2)sc2ccc(C(=O)NCC3(O)CCCCC3)cc12 [Example 438, Cc1c(sc2ccc(cc12)C(═O)NCC3(O)CCCCC3)-c4ccnc(N)n4]",

IC50 [1] [µM],SMILES,IC50 [2] [µM]
< 5,"COc1cc(CNC(=O)c2ccc3sc(-c4ccnc(N)n4)c(C)c3c2)cc(OC)c1 [Example 439, COc1cc(CNC(═O)c2ccc3sc(c(C)c3c2)-c4ccnc(N)n4)cc(OC)c1]",
< 5,"COc1ccc(CNC(=O)c2ccc3sc(-c4ccnc(N)n4)c(C)c3c2)cc1OC [Example 440, COc1ccc(CNC(═O)c2ccc3sc(c(C)c3c2)-c4ccnc(N)n4)cc1OC]",
< 5,"Cc1c(-c2ccnc(N)n2)sc2ccc(C(=O)NCCCNC(=O)OC(C)(C)C)cc12 [Example 443, Cc1c(sc2ccc(cc12)C(═O)NCCCNC(═O)OC(C)(C)C)-c3ccnc(N)n3]",
> 5,"Cc1c(-c2ccnc(N)n2)sc2ccc(C(=O)NCc3ccc(C(F)(F)F)cc3)cc12 [Example 444, Cc1c(sc2ccc(cc12)C(═O)NCc3ccc(cc3)C(F)(F)F)-c4ccnc(N)n4]",
< 5,"Cc1c(-c2ccnc(N)n2)sc2ccc(C(=O)NCc3cccc(C(F)(F)F)c3)cc12 [Example 445, Cc1c(sc2ccc(cc12)C(═O)NCc3cccc(c3)C(F)(F)F)-c4ccnc(N)n4]",
> 5,"Cc1c(-c2ccnc(N)n2)sc2ccc(C(=O)NCc3ccc(Cl)c(Cl)c3)cc12 [Example 446, Cc1c(sc2ccc(cc12)C(═O)NCc3ccc(Cl)c(Cl)c3)-c4ccnc(N)n4]",
,"Cc1c(-c2ccnc(N)n2)sc2ccc(C(=O)NCc3ccc(Cl)cc3Cl)cc12 [Example 447, Cc1c(sc2ccc(cc12)C(═O)NCc3ccc(Cl)cc3Cl)-c4ccnc(N)n4]",> 5
< 5,"Cc1c(-c2ccnc(N)n2)sc2ccc(C(=O)NC3CCN(Cc4ccccc4)C3)cc12 (stereo not drawn) [Example 448, Cc1c(sc2ccc(cc12)C(═O)NC3CCN(C3)Cc4ccccc4)-c5ccnc(N)n5]",
< 5,"COc1ccc(OC)c(CCNC(=O)c2ccc3sc(-c4ccnc(N)n4)c(C)c3c2)c1 [Example 449, COc1ccc(OC)c(CCNC(═O)c2ccc3sc(c(C)c3c2)-c4ccnc(N)n4)c1]",
< 5,"COc1ccc(CNC(=O)c2ccc3sc(-c4ccnc(N)n4)c(C)c3c2)cc1O [Example 451, COc1ccc(CNC(═O)c2ccc3sc(c(C)c3c2)-c4ccnc(N)n4)cc1O]",
< 5,"Cc1c(-c2ccnc(N)n2)sc2ccc(C(=O)NC3CCN(Cc4ccccc4)CC3)cc12 [Example 452, Cc1c(sc2ccc(cc12)C(═O)NC3CCN(CC3)Cc4ccccc4)-c5ccnc(N)n5]",
> 5,"Cc1c(-c2ccnc(N)n2)sc2ccc(C(=O)NCc3ccccc3OC(F)(F)F)cc12 [Example 453, Cc1c(sc2ccc(cc12)C(═O)NCc3ccccc3OC(F)(F)F)-c4ccnc(N)n4]",
< 5,"Cc1c(-c2ccnc(N)n2)sc2ccc(C(=O)NCCc3ccc(S(N)(=O)=O)cc3)cc12 [Example 454, Cc1c(sc2ccc(cc12)C(═O)NCCc3ccc(cc3)S(N)(═O)═O)-c4ccnc(N)n4]",
< 5,"Cc1c(-c2ccnc(N)n2)sc2ccc(C(=O)NCCc3ccc4c(c3)OCO4)cc12 [Example 456, Cc1c(sc2ccc(cc12)C(═O)NCCc3ccc4OCOc4c3)-c5ccnc(N)n5]",
> 5,"Cc1c(-c2ccnc(N)n2)sc2ccc(C(=O)NCCC(c3ccccc3)c3ccccc3)cc12 [Example 457, Cc1c(sc2ccc(cc12)C(═O)NCCC(c3ccccc3)c4ccccc4)-c5ccnc(N)n5]",
< 5,"Cc1c(-c2ccnc(N)n2)sc2ccc(C(=O)N(C)C)cc12 [Example 459, CN(C)C(═O)c1ccc2sc(c(C)c2c1)-c3ccnc(N)n3]",
< 5,"CCN(C)C(=O)c1ccc2sc(-c3ccnc(N)n3)c(C)c2c1 [Example 460, CCN(C)C(═O)c1ccc2sc(c(C)c2c1)-c3ccnc(N)n3]",
< 5,"C#CCN(C)C(=O)c1ccc2sc(-c3ccnc(N)n3)c(C)c2c1 [Example 461, CN(CC#C)C(═O)c1ccc2sc(c(C)c2c1)-c3ccnc(N)n3]",

SMILES,IC50 [1] [µM],IC50 [2] [µM]
"Cc1c(-c2ccnc(N)n2)sc2ccc(C(=O)NCc3ccc(C(C)C)cc3)cc12 [Example 419, CC(C)c1ccc(CNC(═O)c2ccc3sc(c(C)c3c2)-c4ccnc(N)n4)cc1]",< 5,
"COc1ccc(CCNC(=O)c2ccc3sc(-c4ccnc(N)n4)c(C)c3c2)cc1 [Example 423, COc1ccc(CCNC(═O)c2ccc3sc(c(C)c3c2)-c4ccnc(N)n4)cc1]",< 5,
"CCOC(=O)N1CCC(NC(=O)c2ccc3sc(-c4ccnc(N)n4)c(C)c3c2)CC1 [Example 442, CCOC(═O)N1CCC(CC1)NC(═O)c2ccc3sc(c(C)c3c2)-c4ccnc(N)n4]",< 5,
"Cc1c(-c2ccnc(N)n2)sc2ccc(C(=O)NCc3ccc(N(C)C)cc3)cc12 [Example 450, CN(C)c1ccc(CNC(═O)c2ccc3sc(c(C)c3c2)-c4ccnc(N)n4)cc1]",> 5,
"COc1ccc(C(=O)CNC(=O)c2ccc3sc(-c4ccnc(N)n4)c(C)c3c2)cc1 [Example 455, COc1ccc(cc1)C(═O)CNC(═O)c2ccc3sc(c(C)c3c2)-c4ccnc(N)n4]",< 5,
"Cc1ccc(S(=O)(=O)NCCNC(=O)c2ccc3sc(-c4ccnc(N)n4)c(C)c3c2)cc1 [Example 458, Cc1ccc(cc1)S(═O)(═O)NCCNC(═O)c2ccc3sc(c(C)c3c2)-c4ccnc(N)n4]",< 5,
